The subject of data set [1] is LPS-induced TNF-α release. Put plainly: LPS-induced TNF-α release in mouse primary peritoneal macrophages (ELISA). The data set is classed as cell-based. Particulars: Peritoneal macrophage, LPS (0.5 μg/mL) 24 h, 30 min pretreatment, read-out: IC50 against the release of TNF-α. On the procedure: (§1) Figure S3. Inhibitory activity of the benzo[def]carbazole-3,5-diones against LPS-induced TNF-α and IL-6 secretion in mouse peritoneal macrophages. Macrophages were plated at a density of 5 × 10^5/plate for overnight at 37 °C and in 5% CO2. Cells were pretreated with 5 or tanshinone analogues (10 μM) for 30 min, then treated with LPS (0.5 μg/mL) for 24 h. L6H21 (19) was used as a positive control. TNF-α and IL-6 levels in the culture medium were measured by ELISA and were normalized by the total protein level. The results were presented as the percent of LPS control. Each bar represents the mean ± SD of three independent experiments.
(§2) Statistical significance relative to the LPS group is indicated: ∗ , p < 0.05; ∗∗, p < 0.01.
(§3) (1 picture or pasted object on this page, not shown here)
(§4) Figure S5. […]
(§5) 30 min, then treated with LPS (0.5 μg/mL) for 24 h. IL-6 and TNF-α levels in the culture media were measured by ELISA and were normalized by the total protein. The results were expressed as the percent of LPS. […]
(§6) Determination of TNF-α and IL-6. The levels of TNF-α and IL-6 in medium, bronchoalveolar lavage fluid (BALF) and serum were determined with an ELISA kit (eBioScience, San Diego, CA) according to the manufacturer’s instructions. The total amount of the inflammatory factor in the medium was normalized to the total protein quantity of the viable cell pellets. […]
For orientation: ELISA stands for enzyme-linked immunosorbent assay.

Data set [2] in a line: Preliminary pharmacokinetic parameters (p.o. and i.v.). Particulars: for MRT inf: read-out: MRTINF_obs. The data set is classed as in vivo. As for the experimental part:
Table S4. Preliminary Pharmacokinetic Parameters for Compound 15a a-c
T1/2 Tma Cmax AUC CL_obs MRTINF_obs Vss_obs F […]
aValues are the average of three runs. Vehicle: DMSO, Tween 80, normal saline. CL, clearance; Vss, volume of distribution; T1/2, half-life; Cmax, maximum concentration; Tmax, time of maximum concentration; MRT, mean residence time; AUC, area under the plasma concentration time curve; F, oral bioavailability. bDose: p.o. at 3.0 mg/kg; cDose: i.v. at 1.0

Data set [3] deals with LPS-induced IL-6 release. Description: LPS-induced IL-6 release in mouse primary peritoneal macrophages (ELISA). The data set is classed as cell-based. Particulars: Peritoneal macrophage, LPS (0.5 μg/mL) 24 h, 30 min pretreatment, read-out: IC50 against the release of IL-6. As for the experimental part:
as §1, §2, §3, §4, §5, §6

The target in data set [4] is T1, hERG potassium ion channel (Homo sapiens, UniProt Q12809).
T1 construct: expressed in transfected cells; host or cells: HEK293 (human embryonic kidney cells stably expressing hERG channels)
T1 sequence (Q12809 whole entry): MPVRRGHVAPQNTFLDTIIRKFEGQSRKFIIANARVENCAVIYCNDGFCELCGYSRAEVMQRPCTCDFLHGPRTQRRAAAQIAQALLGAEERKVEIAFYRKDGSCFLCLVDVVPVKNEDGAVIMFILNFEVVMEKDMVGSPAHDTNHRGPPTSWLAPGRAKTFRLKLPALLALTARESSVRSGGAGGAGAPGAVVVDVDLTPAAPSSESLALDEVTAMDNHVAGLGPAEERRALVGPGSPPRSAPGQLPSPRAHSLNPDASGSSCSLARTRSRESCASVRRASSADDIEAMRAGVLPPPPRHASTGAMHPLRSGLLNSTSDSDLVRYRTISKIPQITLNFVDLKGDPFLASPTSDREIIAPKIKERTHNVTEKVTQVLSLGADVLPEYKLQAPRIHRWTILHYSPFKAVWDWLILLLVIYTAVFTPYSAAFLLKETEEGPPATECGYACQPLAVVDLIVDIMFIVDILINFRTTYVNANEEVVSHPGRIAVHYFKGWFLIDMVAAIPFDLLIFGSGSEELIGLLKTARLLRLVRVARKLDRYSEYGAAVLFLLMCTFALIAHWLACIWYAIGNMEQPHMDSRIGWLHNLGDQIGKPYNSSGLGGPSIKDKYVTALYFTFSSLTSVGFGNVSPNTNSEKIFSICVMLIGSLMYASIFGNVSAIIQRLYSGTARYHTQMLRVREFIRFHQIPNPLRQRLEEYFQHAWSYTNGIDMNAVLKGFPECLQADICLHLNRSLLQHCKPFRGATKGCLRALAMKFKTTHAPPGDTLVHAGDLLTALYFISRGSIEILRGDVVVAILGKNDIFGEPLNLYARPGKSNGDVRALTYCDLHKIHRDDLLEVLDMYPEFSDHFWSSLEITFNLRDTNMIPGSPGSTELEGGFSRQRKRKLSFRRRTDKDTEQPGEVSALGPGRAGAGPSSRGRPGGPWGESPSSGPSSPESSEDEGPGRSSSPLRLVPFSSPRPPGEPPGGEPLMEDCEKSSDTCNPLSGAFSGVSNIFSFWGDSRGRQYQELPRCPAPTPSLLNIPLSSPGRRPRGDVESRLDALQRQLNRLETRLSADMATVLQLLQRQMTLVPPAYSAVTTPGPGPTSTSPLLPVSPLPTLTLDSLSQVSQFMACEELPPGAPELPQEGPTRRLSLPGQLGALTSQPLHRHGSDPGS
Description: hERG cardiotoxicity assay (manual patch clamp, HEK293). It is filed as cell-based. The settings on record: whole-cell patch clamp, read-out: hERG inhibition IC50. For orientation: The hERG channel carries a current that helps repolarise heart muscle cells.
Description: hERG Cardiotoxicity Assay. The human embryonic kidney cells stably expressing hERG channels were used in the study.
vehicle control were delivered separately to the clamped cells by a 6-channel perfusion system. The hERG channel tail currents were recorded by clampex 10.3. The data were collected and analyzed by clampfit 10.3. The peak of the tail currents in the presence of positive control and test article were normalized with the currents recorded in the presence of corresponding vehicle control as 100 %, respectively. The IC50 value was calculated using GraphPad Prism 5.00.

Read-outs that look alike come from different tables or passages of the source. Bounds are passed on as bounds.

As usually defined, the IC50 is the concentration at which inhibition is half-maximal. Broadly, the AUC is concentration integrated over time. The low end stands for low exposure, the high end for high exposure. Usually half-life stands for how long it takes for the measured level to halve. In general, Cmax refers to the highest concentration seen after dosing. For the molecule `Cc1coc2c1C(=O)c1c3c-2ccc2c3c(n1Cc1ccccc1)C(=O)CC2(C)C` [Compound 15a], the IC50 in data set [1] came to 6.37 µM. Besides, the Vss_obs in data set [2] (iv, 1.0 mg/kg) was 5.98 L/kg. Also, in data set [2] (plasma, iv, 1.0 mg/kg), the AUC is 485 ng·h/mL, the half-life was 5 h and the MRT inf worked out at 2.98 h. Moreover, in data set [2] (plasma, iv, 1.0 mg/kg, read-out: CL_obs), the clearance turned out to be 34.9 mL/min/kg. Also, in data set [2] (plasma, po, 3.0 mg/kg), the AUC was 426 ng·h/mL, the Cmax was found to be 81.2 ng/mL and the MRT inf turned out to be 5.33 h. Further, the “F (oral bioavailability)” value in data set [2] (po 3.0 mg/kg vs iv 1.0 mg/kg) was 30.2%. For the same molecule, in data set [2] (po, 3.0 mg/kg), the T1/2 was found to be 4.05 h and the Tma is on record as 1.83 h. The IC50 in data set [3] turned out to be 1.62 µM. Moreover, the IC50 in data set [4] was > 40 µM.
